# System: patients with MDD and an inadequate response to an SSRI or SNRI
# Assay: Massachusetts General Hospital Sexual Functioning Index (MGH-SFI), Study ACP-103-042
# Type: in vivo, human
# Description: “Massachusetts General Hospital Sexual Functioning Index (MGH-SFI)” is described, for instance, in Labbate and Lare, 2001, Psychother Psychosom. 70(4):221-225. This is a patient facing questionnaire that quantifies sexual dysfunction into 5 functional domains (“interest in sex,” “sexual arousal,” “ability to achieve orgasm,” “ability to maintain erection” (males only), and “sexual satisfaction”). Patients rate each item using a 6-point scale ranging from 1 (good function) to 6 (poor function). High scores indicate poor sexual functioning. […] The determination of the subject's status and eligibility for randomization in Stage 2 was made in a double-blind manner. […] Sexual functioning was assessed using the Massachusetts General Hospital Sexual Functioning Index or MGH-SFI (Labbate and Lare, 2001, Psychother Psychosom. 70(4):221-225). This is a patient facing questionnaire that quantifies sexual dysfunction into 5 functional domains (“interest in sex,” “sexual arousal,” “ability to achieve orgasm,” “ability to maintain erection” [malesonly], and “sexual satisfaction”). Patients rate each item using a 6-point scale ranging from 1 (good function) to 6 (poor function). The time frame for this scale is the past month. This scale was administered at baseline and Week 5 in both stages of the study. High scores indicate poor sexual functioning. In ACP-103-042 the mean scores for MGH-SFI at Baseline was calculated over all 5 domains for males and the 4 domains for females. For MGH-SFI (follow-up version) at Study Weeks 5 and 10, the mean was calculated in the same way as MGH-SFI at Baseline. […] Tables 10-27 summarize the detailed data of MGH-SFI individual items of the overall study group (Tables 10-15), the subgroup of age of <=50 (Tables 16-21) and the subgroup of age of >50 (Table 21-26). In Tables 9-26, ANCOVA=analysis of covariance; OC=observed cases; LSM=least squares mean; CI=confidence interval; SD=standard deviation; SE=standard error. Stage 1: Baseline=Study Week 0, Week 5=Study Week 5; Stage 2: Baseline=Study Week 5, Week 5=Study Weeks 10. LSM from the stage-specific ANCOVA analysis with the change from baseline as the outcome, treatment group as a factor, and the corresponding Baseline value as a covariate. 2-sided p-value for treatment difference from the stage-specific ANCOVA analysis. An treatment effect size (Cohen's d) is calculated using the formula: Effect Size=Least Square mean difference between PIM and PBO/SD. The corresponding 95% confidence interval for an effect size is calculated based on the theoretical probability distribution of the effect size. […] Tables 10-15 and 28-38 summarize the detailed data of MGH-SFI individual items of the overall study group (Tables 10-15), the female subgroup (Tables 33-37) and the male subgroup (Table 38-43). An treatment effect size (Cohen's d) is calculated using the formula: Effect Size=Least Square mean difference between PIM and PBO/SD. The corresponding 95% confidence interval for an effect size is calculated based on the theoretical probability distribution of the effect size. In Tables 10-15 and 28-38, ANCOVA=analysis of covariance; OC=observed cases; LSM=least squares mean; CI=confidence interval; SD=standard deviation; SE=standard error. Stage 1: Baseline=Study Week 0, Week 5=Study Week 5; Stage 2: Baseline=Study Week 5, Week 5=Study Weeks 10. LSM from the stage-specific ANCOVA analysis with the change from baseline as the outcome, treatment group as a factor, and the corresponding Baseline value as a covariate. 2-sided p-value for treatment difference from the stage-specific ANCOVA analysis. An treatment effect size (Cohen's d) is calculated using the formula: Effect Size=Least Square mean difference between PIM and PBO/SD. The corresponding 95% confidence interval for an effect size is calculated based on the theoretical probability distribution of the effect size.
# [1] = Stage 2, Overall Study Group, 34 mg QD + SSRI/SNRI
# [2] = Stage 2, Subgroup of <=50 Years
# [3] = Stage 2, Subgroup of <=50 Years Old
# [4] = Stage 2, Subgroup of <=50 Years Old, 34 mg QD + SSRI/SNRI
# [5] = female subgroup, Stage 1 (Study Week 0 to 5), PIM 34 mg
# [6] = female subgroup, Stage 1 (Study Week 5), PIM 34 mg
# [7] = female subgroup, Stage 1, positive = pimavanserin better than placebo
# [8] = female subgroup, Stage 2 (Study Week 5 to 10), PIM 34 mg
# [9] = female subgroup, Stage 2 (Study Week 10), PIM 34 mg
# [10] = female subgroup, Stage 2, positive = pimavanserin better than placebo
compound,measurement,setting,value
"CC(C)COc1ccc(CNC(=O)N(Cc2ccc(F)cc2)C2CCN(C)CC2)cc1 [pimavanserin, N-(4-Fluorophenylmethyl)-N-(1-methylpiperidin-4-yl)-N′-(4-(2-methylpropyloxy)phenylmethyl)carbamide]","MGH-SFI 05: Overall Sexual Satisfaction, Effect Size (Cohen's d)","Stage 2, Overall Study Group",0.404
same,"MGH-SFI 05: Overall Sexual Satisfaction, Week 5 Median","Stage 2, Overall Study Group",4.5
same,"MGH-SFI 06: Overall Improvement Since Last Medication Change, Effect Size (Cohen's d)","Stage 2, Overall Study Group",0.227
same,"MGH-SFI 06: Overall Improvement Since Last Medication Change, Week 5 Median","Stage 2, Overall Study Group",4.0
same,"MGH-SFI 01: Interest in Sex, Week 5 Mean (SE)",[1],4.1 (0.28)
same,"MGH-SFI 02: Ability to Get Sexually Aroused or Excited, Week 5 Mean (SE)",[1],4.2 (0.27)
same,"MGH-SFI 03: Ability to Achieve Orgasm, Week 5 Mean (SE)",[1],4.3 (0.32)
same,"MGH-SFI 04: (Men) Ability to Get and Maintain an Erection, Week 5 Mean (SE)",[1],3.1 (0.54)
same,"MGH-SFI 05: Overall Sexual Satisfaction, Week 5 Mean (SE)",[1],4.1 (0.33)
same,"MGH-SFI 06: Overall Improvement Since Last Medication Change, Week 5 Mean (SE)",[1],3.6 (0.25)
same,"MGH-SFI 01: Interest in Sex, Change from Baseline to Week 5 Mean (SE)",[2],−0.3 (0.21)
same,"MGH-SFI 01: Interest in Sex, Change from Baseline to Week 5 Median",[2],0.0
same,"MGH-SFI 01: Interest in Sex, Effect Size (Cohen's d)",[2],0.081
same,"MGH-SFI 01: Interest in Sex, Week 5 Median",[2],4.0
same,"MGH-SFI 02: Ability to Get Sexually Aroused or Excited, Change from Baseline to Week 5 Mean (SE)",[3],−0.3 (0.25)
same,"MGH-SFI 02: Ability to Get Sexually Aroused or Excited, Change from Baseline to Week 5 Median",[3],−1.0
same,"MGH-SFI 02: Ability to Get Sexually Aroused or Excited, Effect Size (Cohen's d)",[3],0.017
same,"MGH-SFI 02: Ability to Get Sexually Aroused or Excited, Week 5 Median",[3],4.0
same,"MGH-SFI 03: Ability to Achieve Orgasm, Change from Baseline to Week 5 Mean (SE)",[3],−0.3 (0.25)
same,"MGH-SFI 03: Ability to Achieve Orgasm, Change from Baseline to Week 5 Median",[3],0.0
same,"MGH-SFI 03: Ability to Achieve Orgasm, Effect Size (Cohen's d)",[3],0.449
same,"MGH-SFI 03: Ability to Achieve Orgasm, Week 5 Median",[3],4.0
same,"MGH-SFI 02: Ability to Get Sexually Aroused or Excited, Week 5 Mean (SE)",[4],4.1 (0.33)
same,"MGH-SFI 03: Ability to Achieve Orgasm, Week 5 Mean (SE)",[4],4.1 (0.40)
same,"MGH-SFI 01: Interest in Sex, Week 5 Mean (SE)","Stage 2, Subgroup of <=50 Years, 34 mg QD + SSRI/SNRI",3.9 (0.36)
same,"MGH-SFI Items effect sizes, mean change from baseline to Week 5 vs placebo",female patients,> 0.5
same,"MGH-SFI 01: Interest in Sex, Change from Baseline to Week 5 Mean (SE)",[5],−0.9 (0.21)
same,"MGH-SFI 01: Interest in Sex, Change from Baseline to Week 5 Median",[5],−1.0
same,"MGH-SFI 02: Ability to Get Sexually Aroused or Excited, Change from Baseline to Week 5 Mean (SE)",[5],−0.8 (0.17)
same,"MGH-SFI 02: Ability to Get Sexually Aroused or Excited, Change from Baseline to Week 5 Median",[5],−1.0
same,"MGH-SFI 03: Ability to Achieve Orgasm, Change from Baseline to Week 5 Mean (SE)",[5],−1.2 (0.27)
same,"MGH-SFI 03: Ability to Achieve Orgasm, Change from Baseline to Week 5 Median",[5],0.0
same,"MGH-SFI 05: Overall Sexual Satisfaction, Change from Baseline to Week 5 Mean (SE)",[5],−0.9 (0.26)
same,"MGH-SFI 05: Overall Sexual Satisfaction, Change from Baseline to Week 5 Median",[5],0.0
same,"MGH-SFI 01: Interest in Sex, Week 5 Mean (SE)",[6],3.7 (0.29)
same,"MGH-SFI 01: Interest in Sex, Week 5 Median",[6],4.0
same,"MGH-SFI 02: Ability to Get Sexually Aroused or Excited, Week 5 Mean (SE)",[6],3.7 (0.28)
same,"MGH-SFI 02: Ability to Get Sexually Aroused or Excited, Week 5 Median",[6],3.5
same,"MGH-SFI 03: Ability to Achieve Orgasm, Week 5 Mean (SE)",[6],3.8 (0.28)
same,"MGH-SFI 03: Ability to Achieve Orgasm, Week 5 Median",[6],4.0
same,"MGH-SFI 05: Overall Sexual Satisfaction, Week 5 Mean (SE)",[6],3.8 (0.29)
same,"MGH-SFI 05: Overall Sexual Satisfaction, Week 5 Median",[6],3.5
same,"MGH-SFI 06: Overall Improvement Since Last Medication Change, Week 5 Mean (SE)",[6],3.2 (0.17)
same,"MGH-SFI 06: Overall Improvement Since Last Medication Change, Week 5 Median",[6],4.0
same,"MGH-SFI 01: Interest in Sex, Effect Size (Cohen's d)",[7],0.561
same,"MGH-SFI 02: Ability to Get Sexually Aroused or Excited, Effect Size (Cohen's d)",[7],0.616
same,"MGH-SFI 03: Ability to Achieve Orgasm, Effect Size (Cohen's d)",[7],0.749
same,"MGH-SFI 05: Overall Sexual Satisfaction, Effect Size (Cohen's d)",[7],0.627
same,"MGH-SFI 06: Overall Improvement Since Last Medication Change, Effect Size (Cohen's d)",[7],0.634
same,"MGH-SFI 01: Interest in Sex, Change from Baseline to Week 5 Mean (SE)",[8],−0.3 (0.17)
same,"MGH-SFI 01: Interest in Sex, Change from Baseline to Week 5 Median",[8],0.0
same,"MGH-SFI 02: Ability to Get Sexually Aroused or Excited, Change from Baseline to Week 5 Mean (SE)",[8],−0.3 (0.20)
same,"MGH-SFI 02: Ability to Get Sexually Aroused or Excited, Change from Baseline to Week 5 Median",[8],0.0
same,"MGH-SFI 03: Ability to Achieve Orgasm, Change from Baseline to Week 5 Mean (SE)",[8],−0.3 (0.20)
same,"MGH-SFI 03: Ability to Achieve Orgasm, Change from Baseline to Week 5 Median",[8],0.0
same,"MGH-SFI 05: Overall Sexual Satisfaction, Change from Baseline to Week 5 Mean (SE)",[8],−0.4 (0.26)
same,"MGH-SFI 05: Overall Sexual Satisfaction, Change from Baseline to Week 5 Median",[8],0.0
same,"MGH-SFI 01: Interest in Sex, Week 5 Mean (SE)",[9],4.4 (0.34)
same,"MGH-SFI 01: Interest in Sex, Week 5 Median",[9],5.0
same,"MGH-SFI 02: Ability to Get Sexually Aroused or Excited, Week 5 Mean (SE)",[9],4.5 (0.32)
same,"MGH-SFI 02: Ability to Get Sexually Aroused or Excited, Week 5 Median",[9],5.0
same,"MGH-SFI 03: Ability to Achieve Orgasm, Week 5 Mean (SE)",[9],4.6 (0.38)
same,"MGH-SFI 03: Ability to Achieve Orgasm, Week 5 Median",[9],5.0
same,"MGH-SFI 05: Overall Sexual Satisfaction, Week 5 Mean (SE)",[9],4.6 (0.38)
same,"MGH-SFI 05: Overall Sexual Satisfaction, Week 5 Median",[9],5.0
same,"MGH-SFI 06: Overall Improvement Since Last Medication Change, Week 5 Mean (SE)",[9],3.6 (0.29)
same,"MGH-SFI 06: Overall Improvement Since Last Medication Change, Week 5 Median",[9],4.0
same,"MGH-SFI 01: Interest in Sex, Effect Size (Cohen's d)",[10],0.073
same,"MGH-SFI 02: Ability to Get Sexually Aroused or Excited, Effect Size (Cohen's d)",[10],−0.064
same,"MGH-SFI 03: Ability to Achieve Orgasm, Effect Size (Cohen's d)",[10],0.132

# — US20220016101A1 (ACADIA Pharmaceuticals Inc., priority 2018, published 2022)
